Like-named read-outs stand apart in the source and are kept apart here.
Experiments:
HME-RhoC cells [1] = test: Matrigel invasion (cell motility) assay; format: cell-based, human
Description: FIG. 5. Determination of cell invasiveness in the presence and absence of 6-thiopurine and/or a redox agent. The top chamber of a Transwell filter (6.5 mm with 8 μm pores, Costar; Corning, N.Y.) was coated with a 10 μL aliquot of 10 mg/mL Matrigel (BD Biosciences, Bedford Mass.), and the lower chamber of the Transwell was filled with either serum-free or serum-containing media. Sample cells (e.g., 6-TG-resistant HME-RhoC cells) were prepared to resuspend cells in a serum-free medium with 0.1% BSA at a concentration of 4×10^5 cells/mL. At this point, neither 6-thiopurine nor GSNO were added to the cells. The sample cells (0.5 mL) were added to the top chamber of a Transwell filter and were incubated for 24 h at 37° C. in a 10% CO2 incubator. The Transwell filters were fixed with methanol, stained with H&E, and cells in the serum-containing samples were counted. The number of cells that had invaded the serum-free medium-containing lower chambers was used as a control background. Results are given as percent invasion over that seen in HME-RhoC cells (100%) and represent mean and standard error values from triplicate measurements.
FIG. 11. Determination of cell invasiveness in the presence and absence of […] and/or a redox agent. […] The number of cells that had invaded the serum-free medium-containing lower chambers was used as a control background. Results are given as percent invasion over that seen in HME-RhoC cells (100%) and represent mean and standard error values from triplicate measurements.
FIG. 14. Determination of cell invasiveness in the presence and absence of thiopurines and/or redox agents. […] Western blot analysis representing the total expression of RhoC in these cells also is shown. (B) Experimental procedures for the determination of the time-dependent motility of cells using the QCM Cell Invasion Assay kit in the presence and absence of 6-TG and DETA/NO are described elsewhere herein.
The top chamber of a Transwell filter (6.5 mm with 8 μm pores, Costar; Corning, N.Y.) was coated with a 10 μL aliquot of 10 mg/mL Matrigel, and the lower chamber of the Transwell was filled with either serum-free or serum-containing media. Sample cells were prepared to resuspend cells in a serum-free medium with 0.1% BSA at a concentration of 4×10^5 cells/mL. […] The Transwell filters were fixed with methanol, stained with haematoxylin and eosin, and cells in the serum-containing samples were counted. The number of cells that had invaded the serum-free, medium-containing lower chambers was used as a control background.

HME-RhoC cells [2] = test: MTT cell viability and caspase-3/8 assays; format: cell-based, human
Source text: FIG. 25. […] (B) Caspase-3/8 assay: the apoptotic activity of sample cells treated with the apoptotic inducer was set to be 100%, and other results were then expressed as normalized values against the mean value associated with the treatment with the apoptotic inducer. For both (A) and (B), all values represent the mean values and standard error values from triplicate measurements.

RhoC = RhoC (Homo sapiens, UniProt P08134); test: Competitive binding assay, [3H]GDP-loaded Rho protein titrated with 6-TGDP (FIG. 16A); design: made in house; host or cells: E. coli
Sequence of RhoC (P08134 whole entry): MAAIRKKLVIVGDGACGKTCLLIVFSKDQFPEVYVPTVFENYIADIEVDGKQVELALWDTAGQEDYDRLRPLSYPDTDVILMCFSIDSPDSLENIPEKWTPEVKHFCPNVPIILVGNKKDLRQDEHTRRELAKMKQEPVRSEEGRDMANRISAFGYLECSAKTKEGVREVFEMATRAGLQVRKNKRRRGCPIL
Description: (§1) FIG. 16. Kinetic properties of RhoC with 6-TGDP in the presence or absence of a redox agent. All kinetic analyses are described elsewhere herein. (A) ^appKD values of Rac1, RhoA, RhoC, and RhoC C20S for 6-TGDP were estimated to be 7.9, 11.6, 11.8, and 11.2 μM, respectively. ^trueKD values of Rac1, RhoA, […] for 6-TGDP were then calculated to be 5.1, 10.8, 11.1, and 10.5 μM, respectively, by using a compensation equation, ^trueKD for 6-TGDP=^appKD for 6-TGDP/(1+[[^3H]GDP]/^trueKD for GDP) (Heo, J., and Hong, I. (2010) Biochemistry 49, 3965-3976), in conjunction with the values given. […] The GDP dissociation rates from RhoC C20S by NO, .NO2, and N2O3 were estimated to be 0.02×10^−3, 0.05×10^−3, and 0.04×10^−3 s^−1, respectively. […] (D) ^appKD values of RhoC for [^3H]GDP in the presence or absence of DTT were estimated to be 22.4 μM and […], respectively. ^appKD values of C20S RhoC for [^3H]GDP in the presence or absence of DTT were determined to be 24.8 μM and 25.2 μM, respectively. The regression values associated with these fits were >0.8595. All data points associated with vertical standard error bars shown in this figure are the mean values of triplicate measurements.
(§2) Transition metal-free assay buffer and vials as described in a previous study (Heo et al. Biochemistry 49, 3965-3976 (2010)) were used for all kinetic assays. The kinetic assay buffer contains the highest grade of 50 mM NaCl, 10 mM MgCl2, 1 mM EDTA, and 0.1 mM DTPA in 50 mM TrisHCl (pH 7.4). Before performance of any of the assays, all protein samples also were dialyzed with a metal-free buffer under anaerobic conditions. As with RhoA and Rac1 (Heo et al. J. Biol. Chem. 280, 31003-31010 (2005)), C20S RhoC were expressed in E. coli and purified using anionic and size exclusion columns.
(§3) (a) A competitive binding assay was performed to determine the binding affinity of Rho GTPase and 6-TGDP. The radiolabeled [^3H]GDP-loaded Rho protein (1 μM) was titrated with various concentrations of 6-TGDP. The titrated Rho protein sample then was spotted onto a nitrocellulose membrane. Each membrane was washed three times with the assay buffer, and radioactivity was determined using a Beckman-Coulter scintillation counter. The radioactivity of the sample (Rho protein-bound [^3H]GDP) was converted into, and thus plotted, as the fraction of mol GDP per mol total Rho protein. The apparent dissociation constant (^appKD) of the Rho protein with [^3H]GDP in the presence of 6-TGDP was determined by using Prism software to fit the titration curve to a hyperbola.

RhoC C20S = RhoC C20S (Homo sapiens, UniProt P08134, C20S); test: as above; design: made in house; host or cells: E. coli
Sequence of RhoC C20S (P08134 whole entry C20S): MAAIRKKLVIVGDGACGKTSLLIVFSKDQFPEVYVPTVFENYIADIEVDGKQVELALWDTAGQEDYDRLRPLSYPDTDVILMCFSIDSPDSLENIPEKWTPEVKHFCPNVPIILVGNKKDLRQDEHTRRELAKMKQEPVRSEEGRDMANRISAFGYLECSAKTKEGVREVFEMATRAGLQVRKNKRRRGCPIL
Description: as §1, §2, §3

[3] = [3H]GDP-loaded Rho protein 1 μM titrated with 6-TGDP, FIG. 16A, read-out: appKD for 6-TGDP
[4] = determined within this study, read-out: trueKD for GDP

Nc1nc2nc[nH]c2c(=S)[nH]1 [6-TG, 6-thioguanine]
cell motility (HME-RhoC cells [1]; 6-TG 1 μM alone, three or more consecutive days, FIG. 14A): gradual but significant diminution of cell motility
invasive cell motility (HME-RhoC cells [1]; 6-TG 1 μM with DETA/NO (or GSNO) 10 μM, three days, FIG. 14A): complete termination of the invasive cell motility
apoptotic effect (caspase, FIG. 25B) (HME-RhoC cells [2]; 6-TG): minimal
viability and caspase activity (HME-RhoC cells [2]; 6-TG and DETA/NO, FIG. 25): minimally affected
cell viability (MTT, FIG. 25A) (HME-RhoC cells [2]; 6-TG for 3 days): minimally affected

Nc1nc2c(ncn2[C@@H]2O[C@H](COP(=O)(O)OP(=O)(O)O)[C@@H](O)[C@H]2O)c(=S)[nH]1 [6-TGDP, 6-thioguanosine diphosphate]
Kd (RhoC; [3]): 11.8 µM
Kd (RhoC; calculated by compensation equation, FIG. 16A, read-out: trueKD for 6-TGDP): 11.1 µM
Kd (RhoC C20S; [3]): 11.2 µM
Kd (RhoC C20S; calculated by compensation equation, FIG. 16A, fourth value of the list, read-out: trueKD for 6-TGDP): 10.5 µM

Nc1nc2[nH]c(S)nc2c(=O)[nH]1 [8-TG, 2-amino-8-mercapto-1H-purin-6(9H)-one]
invasive mobility after 8-TG followed by NO donor (HME-RhoC cells [1]; 8-TG for a week, then DETA/NO or GSNO 10 μM every 20 or 8 h): virtually all of the invasive mobility of HME-RhoC cells was immediately terminated
termination of RhoC-mediated cell invasiveness, 8-TG with redox agent versus 6-TG-redox combination (HME-RhoC cells [1]; in conjunction with a redox agent): much more effective than a 6-TG-redox combination
screen of thiopurine analogs on invasive cell mobility (HME-RhoC cells [1]; in the presence of NO donor DETA/NO): most effectively inhibits
decline of invasive cell mobility over 5 days of continuous treatment (HME-RhoC cells [1]; only 8-TG 1 μM, FIG. 11): ~60%
decline of invasive cell mobility within a day (HME-RhoC cells [1]; only 8-TG 1 μM, FIG. 11): ~10%
viability of cells treated with 8-TG-redox agent (HME-RhoC cells [2]; 8-TG for a week followed by NO donor): almost the same as that of the untreated HME-RhoC cells

Nc1nc2c(ncn2[C@@H]2O[C@H](COP(=O)(O)OP(=O)(O)O)[C@@H](O)[C@H]2O)c(=O)[nH]1 [GDP]
Kd (RhoC; [4]): 15 ± 8 µM
Kd (RhoC C20S; [4]): 14.2 ± 8 µM

Source: patent US8729047B2, “Compositions for inhibiting redox-sensitive GTPases” (Board of Regents, The University of Texas System, priority 2010, dated 2014)
